From patent US20130310347A1, “MULTI-MODALITY MOLECULAR IMAGING HIGH-THROUGHPUT ASSAY FOR IDENTIFYING HEAT SHOCK PROTEIN 90 (HSP90) INHIBITORS” (The Board of Trustees of the Leland Stanford Junior …, priority 2012, published 2013)

Experiments:
[1] = system: Hsp90 client proteins (Raf-1, total and phosphorylated Akt); assay: Western blotting of Hsp90 client proteins in 293T cells; format: cell-based, human; settings: 2 μM, 24 h, positive control
Protocol: FIG. 5A is a digital image of a western blot analysis illustrating the effect of lead compounds on the expression of Hsp90 client proteins. 293T cells stably expressing Hsp90(α/β)/p23 split reporters were treated with carrier control or compounds CP1, CP9, or CP18 (5 μM each) for 24 h. The known Hsp90 inhibitor PU-H71 (2 μM) was used as a positive control. The expression of Hsp90 client proteins (Raf-1, total and phosphorylated Akt) was determined by western blotting. α-Tubulin was used as a loading control.
Cells treated with PU-H71 (2 μM) served as a positive control.
Cells treated with 2 μM of PU-H71 served as a positive control. Western blotting of Hsp70, phosphorylated and total Akt and co-immunoprecipitation of Hsp90(α/β)/p23 interactions was performed as described Inglese et al., (2006) Proc. Nat. Acad. Sci. U.S.A. 103: 11473-11478, incorporated herein by reference in its entirety. The expression of Raf-1 was determined using rabbit polyclonal antibodies against Raf-1 (0.5 μg/ml, Abcam).

[2] = system: DOX-resistant V79/ADR lung cancer cells; assay: Sensitivity to DOX, Alamar Blue assay; format: cell-based; settings: DOX 0.31-10 μM with inhibitor (CP9 8 μM), 24 h
Protocol: FIGS. 13A-13C illustrate the inhibition of cell proliferation of DOX-resistant V79/ADR lung cancer cells by CP9 and the Hsp90 inhibitor PU-H71 in cell culture. V79 lung cancer cells and […] cells that are resistant to DOX were treated with DOX (0.31-10 μM) in the presence or absence of CP9 (8 μM) for 24 h before determination of cell number by an Alamar Blue assay.
Both Hsp90 isoforms (α and β) are expressed in cancer cells, but Hsp90β is constitutively expressed, whereas the expression of Hsp90α is highly inducible during stress and drug treatment. Using the genetically encoded split Renilla reporter system according to the disclosure, it was possible to decipher the individual contributions of each isoform in determining the sensitivity of Hsp90 inhibitors. It was reported that the transcription of MDR1 is regulated by HSF-1, which in turn is regulated by Hsp90α (Trepel et al., (2010) Nat. Rev. Cancer 10: 537-549). To determine the biological significance of CP9 selectivity in inhibiting Hsp90α/p23 interactions, V79 lung cancer cells and V79/ADR cells that overexpress multidrug-resistant protein and are insensitive to growth inhibition by doxorubicin (DOX) were used. V79 and V79/ADR cells were treated with DOX alone or in the presence of CP9. On the other hand, the addition of CP9 sensitized V79/ADR cells to DOX, as shown by the decrease in cell proliferation relative to treatment with DOX alone, as shown in FIG. 13B. […] The results also are consistent with the observation that derivatives of Hsp90 inhibitor peptides sensitize cancer cells with overexpression of MDR to epirubicin (a class of anthracyclines that includes DOX) (Molnar et al., (2007) In Vivo 21: 429-433).

CC(C)NCCCn1c(Sc2cc3c(cc2I)OCO3)nc2c(N)ncnc21 [PU-H71, reference compound]
levels of Hsp90 client proteins (pAkt/total Akt, Raf-1) [1]: decreased levels of Raf-1, pAkt and total Akt
sensitivity of drug-resistant V79/ADR cells to DOX [2]: restored the sensitivity
